Measured values reported in US11998610B2, “Conjugates and methods of using the same” (Flagship Pioneering Innovations V, Inc., priority 2018, dated 2024).
Non-standard residues stand in square brackets, D forms with d. Residues, ends and D or L forms follow the SMILES beside them. *: point of attachment. Myristoyl = CCCCCCCCCCCCCC(=O)*; Octanoyl = CCCCCCCC(=O)*

Tests used:
[1] = In vitro Colonic Material Stability Assay; type: in vitro ADME; details: for Assay 3 (% Remaining at 24 h): colonic material slurry, anaerobic, 1 or 10 μM
Outline: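 Compounds were added at 1 or 10 μM final to colonic material slurry (6.7 μL of 15% w/v slurry per 1 mL YCFAC or similar medium). Samples taken at 0–2880 min were acetonitrile-quenched and the remaining compound quantified by LC/MS.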

[2] = Stability of conjugates in Simulated Gastric Fluid (SGF); type: in vitro ADME; details: simulated gastric fluid pH 1.6 with pepsin, 1 μM, 37° C.
Outline: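 Compounds at 1 μM (from 1 mM DMSO stock) were incubated at 37°C in simulated gastric fluid, NaCl pH 1.6 with FaSSIF powder and 0.1 mg/mL pepsin. Aliquots taken at T0 and regular intervals were quenched with an equal volume of acetonitrile and analysed by LC/MS for degradation rate.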

[3] = test system: E. coli CFT073 ATCC 700928 and/or E. coli Nissle 1917; assay: Cell-based assay with ClbP with LCMS, ClbP positive strain; details: for % Remaining in ClbP Positve Relative to Media-Only: ClbP-encoding E. coli, 10 μM compound, 37° C., 20 h; for Difference between the ClbP Positive and ClbP Negative release profiles: conclusion from Table 4
Outline: (§1)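 Compound (10 μM final) incubated 20 h at 37° C, aerobically, with 1:40-diluted overnight cultures of ClbP-positive E. coli or negative BL21(DE3), in duplicate, alongside uninoculated LB. Remaining parent quantified by LC-MS/MS (MRM) after acetonitrile quench, expressed as percent of media-alone.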

E. coli BL21(DE3) = assay: Cell-based assay with ClbP with LCMS, ClbP negative strain; details: 10 μM compound, 37° C., 20 h
Outline: as §1

[4] = Stability of conjugates in Simulated Intestinal Fluid (SIF); type: in vitro ADME; details: simulated intestinal fluid pH 6.7 with pancreatin, 1 μM, 37° C.
Outline: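 Conjugates at 1 μM (from 1 mM DMSO stock) were incubated with agitation at 37° C. in freshly made SIF: FaSSIF powder plus pancreatin in pH 6.7 phosphate buffer. Aliquots taken at T0 and at regular intervals were quenched with 1 volume acetonitrile, and LC/MS gave degradation rates.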

Row | SMILES | Assay 3 (% Remaining at 24 h) [1] | Assay 1 (SGF) (% Remaining @ 1 hours) [2] | % Remaining in ClbP Positve Relative to Media-Only [3] | % Remaining in ClbP Negative Relative to Media-Only (E. coli BL21(DE3)) | Assay 2 (SIF) (% @ Remaining 4 hours) [4] | Difference between the ClbP Positive and ClbP Negative release profiles [3] | Selective delivery to the colon (conclusion from Table 2) ([1]; from SGF, SIF and colonic material stability)
1 | CCCCCCCCCCCCCC(=O)N[C@H](CC(N)=O)C(=O)N[C@@H](C)C(=O)OC [Example 1, Methyl tetradecanoyl-D-asparaginyl-L-alaninate] (Myristoyl-[dN]-Ala-OMe) | A (<25% of the tested compound remaining) | C (>75% of the tested compound remaining) | + (between 25-75% compound remaining in the 20 μM WT ClbP reaction relative to the no-enzyme control) | + (between 25-75% compound remaining in the 20 μM WT ClbP reaction relative to the no-enzyme control) | A (<25% of the tested compound remaining) |  | 
2 | CCCCCCCC(=O)N[C@H](CC(N)=O)C(=O)N[C@@H](C)C(=O)OC [Example 2, Methyl octanoyl-D-asparaginyl-L-alaninate] (Octanoyl-[dN]-Ala-OMe) | C (>75% of the tested compound remaining) | C (>75% of the tested compound remaining) | ++ (<25% compound remaining in the 20 μM WT ClbP reaction relative to the control) | + (between 25-75% compound remaining in the 20 μM WT ClbP reaction relative to the no-enzyme control) | A (<25% of the tested compound remaining) |  | 
3 | CCCCCCCC(=O)N[C@@H](CC(N)=O)C(=O)N[C@@H](C)C(=O)OC [Example 4, Methyl octanoyl-L-asparaginyl-L-alaninate] (Octanoyl-Asn-Ala-OMe) | A (<25% of the tested compound remaining) | C (>75% of the tested compound remaining) | ++ (<25% compound remaining in the 20 μM WT ClbP reaction relative to the control) | ++ (<25% compound remaining in the 20 μM WT ClbP reaction relative to the control) | A (<25% of the tested compound remaining) |  | 
4 | CCCCCCCC(=O)N[C@H](CC(N)=O)C(=O)N[C@H](C)C(=O)OC [Example 5, Methyl octanoyl-D-asparaginyl-D-alaninate] (Octanoyl-[dN]-[dA]-OMe) | C (>75% of the tested compound remaining) | C (>75% of the tested compound remaining) | ++ (<25% compound remaining in the 20 μM WT ClbP reaction relative to the control) | − (>75% compound remaining in the 20 μM WT ClbP reaction relative to the no-enzyme control) | C (>75% of the tested compound remaining) | particularly favorable difference | 
5 | CCCCCCCC(=O)N[C@H](CC(N)=O)C(=O)N[C@H](C(=O)OC)C(C)C [Example 6, Methyl octanoyl-D-asparaginyl-L-valinate] (Octanoyl-[dN]-Val-OMe) | B (25-75% of the tested compound remaining) | C (>75% of the tested compound remaining) | ++ (<25% compound remaining in the 20 μM WT ClbP reaction relative to the control) | + (between 25-75% compound remaining in the 20 μM WT ClbP reaction relative to the no-enzyme control) | A (<25% of the tested compound remaining) |  | 
6 | CCCCCCCC(=O)N[C@H](CC(N)=O)C(=O)N[C@@H](CC(C)C)C(=O)OC [Example 7, Methyl octanoyl-D-asparaginyl-L-leucinate] (Octanoyl-[dN]-Leu-OMe) | A (<25% of the tested compound remaining) | C (>75% of the tested compound remaining) | + (between 25-75% compound remaining in the 20 μM WT ClbP reaction relative to the no-enzyme control) | + (between 25-75% compound remaining in the 20 μM WT ClbP reaction relative to the no-enzyme control) | A (<25% of the tested compound remaining) |  | 
7 | CCCCCCCC(=O)N[C@H](CCC(=O)O)C(=O)N[C@@H](C)C(=O)OC [Example 9, (R)-5-(((S)-1-methoxy-1-oxopropan-2-yl)amino)-4-octanamido-5-oxopentanoic acid] (Octanoyl-[dE]-Ala-OMe) | B (25-75% of the tested compound remaining) | C (>75% of the tested compound remaining) | + (between 25-75% compound remaining in the 20 μM WT ClbP reaction relative to the no-enzyme control) | − (>75% compound remaining in the 20 μM WT ClbP reaction relative to the no-enzyme control) | B (25-75% of the tested compound remaining) |  | 
8 | CCCCCCCC(=O)N[C@H](CCC(N)=O)C(=O)N[C@@H](C)C(=O)OC [Example 10, Methyl octanoyl-D-glutaminyl-L-alaninate] (Octanoyl-[dQ]-Ala-OMe) | C (>75% of the tested compound remaining) | C (>75% of the tested compound remaining) | + (between 25-75% compound remaining in the 20 μM WT ClbP reaction relative to the no-enzyme control) | + (between 25-75% compound remaining in the 20 μM WT ClbP reaction relative to the no-enzyme control) | C (>75% of the tested compound remaining) |  | 
9 | CCCCCCCC(=O)N[C@H](CCCNC(=N)N)C(=O)N[C@@H](C)C(=O)OC [Example 11, Methyl octanoyl-D-arginyl-L-alaninate] (Octanoyl-[dR]-Ala-OMe) | C (>75% of the tested compound remaining) | C (>75% of the tested compound remaining) | + (between 25-75% compound remaining in the 20 μM WT ClbP reaction relative to the no-enzyme control) | − (>75% compound remaining in the 20 μM WT ClbP reaction relative to the no-enzyme control) | A (<25% of the tested compound remaining) |  | 
10 | COC(=O)[C@H](C)NC(=O)[C@@H](CC(N)=O)NC(=O)[C@@H](C)c1ccc2cc(OC)ccc2c1 [Example 18, Methyl ((S)-2-(6-methoxynaphthalen-2-yl)propanoyl)-D-asparaginyl-L-alaninate] | C (>75% of the tested compound remaining) | C (>75% of the tested compound remaining) | + (between 25-75% compound remaining in the 20 μM WT ClbP reaction relative to the no-enzyme control) | + (between 25-75% compound remaining in the 20 μM WT ClbP reaction relative to the no-enzyme control) | A (<25% of the tested compound remaining) |  | 
11 | CCCCCCCCCCCCCC(=O)N[C@H](CC(N)=O)C(=O)NCCCC(=O)OC [Example 20, Methyl (R)-4-(4-amino-4-oxo-2-tetradecanamidobutanamido)butanoate] | A (<25% of the tested compound remaining) | C (>75% of the tested compound remaining) | + (between 25-75% compound remaining in the 20 μM WT ClbP reaction relative to the no-enzyme control) | − (>75% compound remaining in the 20 μM WT ClbP reaction relative to the no-enzyme control) | B (25-75% of the tested compound remaining) |  | can be selectively delivered to the colon
12 | CCCCCCCCCCCCCC(=O)N[C@H](CC(N)=O)C(=O)N[C@@H](C)CCC(=O)O[C@]1(CC)C(=O)OCc2c1cc1n(c2=O)Cc2c-1nc1ccc(O)cc1c2CC [Example 35, (S)-4,11-diethyl-9-hydroxy-3,14-dioxo-3,4,12,14-tetrahydro-1H-pyrano[3′,4′:6,7]indolizino[1,2-b]quinolin-4-yl (S)-4-((R)-4-amino-4-oxo-2-tetradecanamidobutanamido)pentanoate] |  | C (>75% of the tested compound remaining) | + (between 25-75% compound remaining in the 20 μM WT ClbP reaction relative to the no-enzyme control) | − (>75% compound remaining in the 20 μM WT ClbP reaction relative to the no-enzyme control) | C (>75% of the tested compound remaining) | particularly favorable difference | 
